Reference: US20120034608A1, “MICRORNA AS A BIOMARKER OF PANCREATIC ISLET BETA-CELL ENGAGEMENT” (Merck Sharp & Dohme Corp., priority 2009, published 2012)

Key:
Format in all cases: cell-based, rat
INS-1 832/3 cells [1] = assay: TAQMAN real-time quantitative RT-PCR of miRNA expression in INS-1 832/3 cells
Procedure: (§1) INS-1 832/3 and 832/13 cells were maintained in RPMI 1640 with 10% FBS and 11 mM glucose. For GLP-1 treatment, GLP-1 (7-37) amide (ABCHEM) was added in the media in the presence of 16 mM glucose for 24 hours. Total RNA was extracted with TRIZOL as in Example 1. Rat islet isolation and treatment was as follows. Pancreatic islets of Langerhans were isolated from the pancreas of normal Sprague-Dawley rats (Charles River, Ind.) by collagenase digestion and discontinuous Ficoll gradient separation (15). Islets were cultured for 2 hours in RPMI 1640 medium with 11 mM glucose for recovery from the isolation process. Then 100-200 islets were treated with 50 nM GLP-1 in the media with 11 mM glucose for 24 hours. RNA was extracted with TRIZOL as in Example 1 for quantification of microRNA species.
Fluorogenic TAQMAN detector probes specific for miR-132 (Cat# TM457), miR-212 (Cat# TM515), miR-375 (Cat#TM564), and miR-217 (Cat#1133) were purchased from Applied Biosystems (Foster City, Calif.). The TAQMAN RT-PCR reactions were performed according to the manufacturer's instructions.
Relative miRNA levels for the miRNAs of interest were determined by real-time reverse transcription reaction using the ABI PRISM 7900 Sequence Detection System from Applied Biosystems (Foster City, Calif.) according to the manufacturer's protocol. Briefly, 10 ng of total RNA was mixed with 1 U MultiScribe Reverse Transcriptase, 0.25 U RNase Inhibitor, 3 μL hairpin-looped miRNA-specific RT primer, 1 mM dNTPs and 1× Reverse Transcription Buffer in a total volume of 15 μL. The mixture was incubated at 16° C. for 30 minutes, 42° C. for another 30 minutes, and the reaction was stopped by heating to 85° C. for 5 minutes. Real time PCR reaction was set up in 20 μL volume with 1.33 μL first strand cDNA, 1× TAQMAN MicroRNA Assay Mix and 1× TAQMAN Universal PCR Master Mix. After activation of the AMPLITAQ Gold DNA polymerase at 95° C. for 10 minutes, 40 cycles of two-step PCR were run (95° C. for 15 seconds and 60° C. for 60 seconds). Data were collected and analyzed with SDS v.2.2.2 software (Applied Biosystems). 4.5S RNA or U6 probe (Applied Biosystems) was used as a reference to determine the relative abundance of each miRNA in different samples. TAQMAN RT-PCR was performed according the manufacturer's instructions.
The absolute miRNA levels were determined by reverse transcription reactions in GeneAmp PCR system 9700 followed by amplification using the ABI PRISM 7900HT Sequence Detection System from Applied Biosystems (Foster City, Calif.) through 40 cycles. 4.5S RNA (H) probe (Cat#TM1716) or U6 (Cat#TM1973) was used as reference to determine the relative abundance of each miRNA in different samples. The induction of miR-132 and miR-212 expression by GLP-1 started around 4 hour post-GLP-1 treatment, peaked at 24 hours and was sustained up to 48 hours (FIG. 2).

INS-1 832/13 cells = assay: TAQMAN analysis of miRNA expression in INS-1 832/13 cells; details: 24 hours post-GLP-1 treatment
Procedure: as §1
Fluorogenic TAQMAN detector probes specific for miR-132 (Cat# TM457), miR-212 (Cat# TM515), miR-375 (Cat#TM564), and miR-217 (Cat#1133) were purchased from Applied Biosystems (Foster City, Calif.). […]
Relative miRNA levels for the miRNAs of interest were determined by real-time reverse transcription reaction using the ABI PRISM 7900 Sequence Detection System from Applied Biosystems (Foster City, Calif.) according to the manufacturer's protocol. […] Data were collected and analyzed with SDS v.2.2.2 software (Applied Biosystems). […]

INS-1 832/3 cells [2] = assay: release of miRNAs from INS-1 832/3 cells into culture media (TAQMAN, normalized to U6 RNA); details: 50 nM GLP-1, after 4 or 8 hours
Procedure: INS1 832/3 cells were treated with 50 nM GLP-1 (7-37) amide (BACHEM) in RPMI 1640 with 10% FBS and 11 mM glucose in 24-well plates for 4, 8, 16, and 24 hours. Cell culture media was collected, 100 μL out of 1 mL media per sample was used for RNA extraction following the protocol for plasma samples (Mitchell et al., Proc. Natl. Acad. Sci. USA 105: 10513-10518). Briefly, RNA isolation was performed using the mirVana PARIS kit following the manufacturer's protocol (Ambion), except that samples were extracted twice with acid phenol-chloroform. The average of about 80 μL of eluate was recovered from each extraction. A fixed volume of 1.67 μL of the RNA eluate was used as input into the reverse transcription reaction. RNA was reverse transcribed using the TAQMAN miRNA Reverse Transcription Kit and miRNA-specific stem-loop primers in 5 μL volume (Applied BioSystems). About 2.25 μL of diluted PCR product (combining 5 μL RT product with 28.9 μL H2O) was added to 2.75 μL of PCR assay reagents to generate a PCR of 5 μL of total volume. The relative miRNA levels were determined by real-time RT-PCR using the ABI PRISM 7900 Sequence Detection System from Applied Biosystems (Foster City, Calif.) through 40 cycles as described in Example 2. TAQMAN reagents were purchased from Applied Biosystems (Foster City, Calif.). […]

[3] = 50 nM GLP-1, 50 nM Exendin-4, 5 μM IBMX, 1 μM Foskolin (FIG. 6A)

## GLP-1 (7-37) amide
INS-1 832/3 cells [1]; [3]
  miR-132 expression: significantly increased
  miR-212 expression: significantly increased
  miR-375 expression: remained unchanged
INS-1 832/3 cells [1]; 50 nM GLP-1 time course
  induction of miR-132 and miR-212 expression sustained up to: up to 48 hours
  peak of induction of miR-132 and miR-212 expression: 24 h
  start of induction of miR-132 and miR-212 expression, time post-GLP-1 treatment: around 4 hour
INS-1 832/3 cells [1]; GLP-1 treatment
  induction of miR-132 and miR-212 (subsequent TAQMAN analyses): confirmed the induction
  induction of miR-217 (subsequent TAQMAN analyses): not miR-217
INS-1 832/13 cells
  increase of miR-132 expression in response to GLP-1: not observed
  increase of miR-212 expression in response to GLP-1: not observed
INS-1 832/3 cells [2]
  miR-132 in the medium compared to vehicle: remained unchanged
  miR-212 in the medium compared to vehicle: remained unchanged
